Assay results published in patent publication US9969723B2, “3-(4-(benzyloxy)phenyl)hex-4-ynoic acid derivative, method of preparing same and pharmaceutical composition for preventing and treating metabolic disease including same as effective ingredient” (HYUNDAI PHARM CO., LTD, priority 2014, dated 2018).
Where two headings read alike, the source gives them in different places.

Molecular target: GPR40 (Homo sapiens (Human), UniProt O14842)
Assay: GPR40 protein activity by intracellular calcium concentration (Fluo-4, Flexstation 3) in transfected HEK-293 cells
Assay type: cell-based
Settings: HEK-293 cells transfected with human GPR40, intracellular calcium
Procedure: The GPR40 protein activity according to the novel 3-(4-(benzyloxy)phenyl)hex-4-inoic acid derivative of the present invention was measured by investigating the changes in intracellular calcium concentration affected by the GRP40 activation. First, HEK-293 cells were transfected with human GPR40 DNA (Origene, RC218370) by using Fugene HD (Promega, E2311). […] 24 hours later, the cell culture medium was replaced with Dulbecco's Modified Eagle Medium (DMEM, 50 μl/well) supplemented with 1% fetal bovine serum (FBS). To measure the calcium concentration, 50 μl of Fluo-4 reagent (Invitrogen, F10471) was added to each well, followed by culture in a 37° C. incubator for 2 hours. […] 2 hours after the culture began, those prepared samples were automatically injected to the cells by using Flexstation 3 (Molecular Devices). Then, intracellular calcium concentration was measured for 120 seconds by using SoftMax® Pro software. At this time, dimethylsulfoxide (DMSO) was injected to the cells for the non-treated group, followed by measuring the calcium concentration therein. The GPR40 protein activity was calculated by the below mathematical formula 1 with the results of calcium concentration measurement. GPR40 activity=(intracellular calcium concentration increased by the sample)/(intracellular calcium concentration of the non-treated group)×100 [Mathematical Formula 1]

[1] = values in text, read-out: EC50, concentration promoting activation of GPR40 protein by 50%

Sequence of GPR40 (O14842 whole entry): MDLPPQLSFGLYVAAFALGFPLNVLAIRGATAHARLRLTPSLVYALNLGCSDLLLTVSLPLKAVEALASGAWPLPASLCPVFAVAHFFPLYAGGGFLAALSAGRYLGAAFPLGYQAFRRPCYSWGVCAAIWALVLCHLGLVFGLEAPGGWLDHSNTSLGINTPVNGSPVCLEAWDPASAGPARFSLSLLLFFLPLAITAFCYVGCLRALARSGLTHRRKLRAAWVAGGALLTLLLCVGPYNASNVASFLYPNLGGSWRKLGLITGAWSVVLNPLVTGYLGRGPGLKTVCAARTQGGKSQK

Compound	EC50 (read-out: EC50) [µM]	EC50 [1] [µM]
CC#CC(CC(=O)O)c1ccc(OCc2cccc(C3=CCC(O)CC3)c2)cc1 [Example 6, L-lysine 3-(4-(3-(4-hydroxycyclohex-1-enyl)benzyloxy)phenyl)hex-4-ynoate]	0.2 to 0.3	
CC#C[C@H](CC(=O)O)c1ccc(OCc2cccc(C3=CCC4(CC3)OCCO4)c2)cc1 [Example 8, (3R)-3-(4-(3-(1,4-dioxaspiro[4,5]dec-7-en-8-yl)benzyloxy)phenyl)hex-4-ynoic acid]	> 0.3	
CC#CC(CC(=O)O)c1ccc(OCc2ccc(CN3CCc4ccccc4C3)cc2)cc1 (centres unmarked) [Example 12, 3-(4-(4-((3,4-dihydroisoquinoline-2(1H)-yl)methyl)benzyloxy)phenyl)hex-4-ynoic acid]	< 0.2	< 0.2
CC#CC(CC(=O)O)c1ccc(OCc2ccc(CN3CCc4ccccc4C3)c(C3=CCCCC3)c2)cc1 (centres unmarked) [Example 13, 3-(4-(3-cyclohexenyl-4-((3,4-dihydroisoquinoline-2(1H)-yl)methyl)benzyloxy)phenyl)hex-4-ynoic acid]	> 0.3	
CC#CC(CC(=O)O)c1ccc(OCc2ccc(CN3CCN(c4ccccc4)CC3)cc2)cc1 (centres unmarked) [Example 15, 3-(4-(4-((4-phenylpiperazine-1-yl)methyl)benzyloxy)phenyl)hex-4-ynoic acid]	> 0.3	
CC#CC(CC(=O)O)c1ccc(OCc2ccc(CN3CCc4cc(OC)ccc4C3)cc2)cc1 (centres unmarked) [Example 16, 3-(4-(4-((6-methoxy-3,4-dihydroisoquinoline-2(1H)-yl)methyl)benzyloxy)phenyl)hex-4-ynoic acid]	> 0.3	
CC#CC(CC(=O)O)c1ccc(OCc2ccc(CN3CCC(c4ccccc4)CC3)cc2)cc1 (centres unmarked) [Example 17, 3-(4-(4-((4-phenylpiperidine-1-yl)methyl)benzyloxy)phenyl)hex-4-ynoic acid]	> 0.3	
CC#CC(CC(=O)O)c1ccc(OCc2ccc(CN3CCN(c4ccc(F)cc4)CC3)cc2)cc1 (centres unmarked) [Example 18, 3-(4-(4-((4-(4-fluorophenyl)piperazine-1-yl)methyl)benzyloxy)phenyl)hex-4-ynoic acid]	> 0.3	
CC#CC(CC(=O)O)c1ccc(OCc2ccc(CN3CCN(c4ccc(C(F)(F)F)cc4)CC3)cc2)cc1 (centres unmarked) [Example 19, 3-(4-(4-((4-(4-(trifluoromethyl)phenyl)piperazine-1-yl)methyl)benzyloxy)phenyl)hex-4-ynoic acid]	> 0.3	
CC#CC(CC(=O)O)c1ccc(OCc2ccc(CN3CCN(c4ccc(OCCCS(C)(=O)=O)cc4)CC3)cc2)cc1 (centres unmarked) [Example 20, 3-(4-(4-((4-(4-(3-(methylsulfonyl)propoxy)phenyl)piperazine-1-yl)methyl)benzyloxy)phenyl)hex-4-ynoic acid]	> 0.3	
CC#C[C@@H](CC(=O)O)c1ccc(OCc2ccc(CN3CCN(c4ccc(C(F)(F)F)cc4)CC3)cc2)cc1 [Example 22, (S)-3-(4-(4-((4-(4-(trifluoromethyl)phenyl)piperazine-1-yl)methyl)benzyloxy)phenyl)hex-4-ynoic acid]	> 0.3	
CC#C[C@@H](CC(=O)O)c1ccc(OCc2ccc(CN3CCN(c4ccc(F)cc4)CC3)cc2)cc1 [Example 23, (S)-3-(4-(4-((4-(4-fluorophenyl)piperazine-1-yl)methyl)benzyloxy)phenyl)hex-4-ynoic acid]	0.2 to 0.3	
CC#C[C@@H](CC(=O)O)c1ccc(OCc2ccc(CN3CCCc4ccccc43)cc2)cc1 [Example 41, sodium (S)-3-(4-(4-((3,4-dihydroquinoline-1(2H)-yl)methyl)benzyloxy)phenyl)hex-4-ynoate]	> 0.3	

Now from value to molecule:

EC50 (read-out: EC50) [µM]	EC50 [1] [µM]	Compound
> 0.3		CC#C[C@@H](CC(=O)O)c1ccc(OCc2ccc(CN3CCc4cc(OC)ccc4C3)cc2)cc1 [Example 25, (S)-3-(4-(4-((6-methoxy-3,4-dihydroisoquinoline-2(1H)-yl)methyl)benzyloxy)phenyl)hex-4-ynoic acid]
< 0.2	< 0.2	CC#C[C@@H](CC(=O)O)c1ccc(OCc2ccc(CN3Cc4ccccc4C3)cc2)cc1 [Example 27, (S)-3-(4-(4-(isoindoline-2-ylmethyl)benzyloxy)phenyl)hex-4-ynoic acid]
> 0.3		CC#C[C@@H](CC(=O)O)c1ccc(OCc2ccc(CN3CC=C(c4ccc(S(C)(=O)=O)cc4)CC3)cc2)cc1 [Example 32, (S)-3-(4-(4-((4-(4-(methylsulfonyl)phenyl)-5,6-dihydropyridine-1(2H)-yl)methyl)benzyloxy)phenyl)hex-4-ynoic acid]
> 0.3		CC#C[C@@H](CC(=O)O)c1ccc(OCc2ccc(CN3CC=C(c4ccc(OCCCS(C)(=O)=O)cc4)CC3)cc2)cc1 [Example 33, (S)-3-(4-(4-((4-(4-(3-(methylsulfonyl)propoxy)phenyl)-5,6-dihydropyridine-1(2H)-yl)methyl)benzyloxy)phenyl)hex-4-ynoic acid]
> 0.3		CC#C[C@@H](CC(=O)O)c1ccc(OCc2ccc(C(C)N3CCc4ccccc4C3)cc2)cc1 (stereo partly drawn) [Example 34, (3S)-3-(4-(4-(1-(3,4-dihydroisoquinoline-2(1H)-yl)ethyl)benzyloxy)phenyl)hex-4-ynoic acid]
> 0.3		CC#C[C@@H](CC(=O)O)c1ccc(OCc2ccc(CN3CCN(c4ccc(O)cc4)CC3)cc2)cc1 [Example 35, (S)-3-(4-(4-((4-(4-hydroxyphenyl)piperazine-1-yl)methyl)benzyloxy)phenyl)hex-4-ynoic acid]
0.2 to 0.3		CC#C[C@@H](CC(=O)O)c1ccc(OCc2ccc(CN3CC=C(c4ccc(F)cc4)CC3)cc2)cc1 [Example 39, (S)-3-(4-(4-((4-(4-fluorophenyl)-5,6-dihydropyridine-1(2H)-yl)methyl)benzyloxy)phenyl)hex-4-ynoic acid]
> 0.3		CC#C[C@@H](CC(=O)O)c1ccc(OCc2ccc(CN3CCN(c4nc5ccccc5s4)CC3)cc2)cc1 [Example 43, (S)-3-(4-(4-((4-(benzo[d]thiazole-2-yl)piperazine-1-yl)methyl)benzyloxy)phenyl)hex-4-ynoic acid]
> 0.3		CC#C[C@@H](CC(=O)O)c1ccc(OCc2ccc(CN3CCN(c4ncc(CCC)cn4)CC3)cc2)cc1 [Example 44, (S)-3-(4-(4-((4-(5-propylpyrimidine-2-yl)piperazine-1-yl)methyl)benzyloxy)phenyl)hex-4-ynoic acid]
> 0.3		CC#C[C@@H](CC(=O)O)c1ccc(OCc2ccc(CN3CCN(c4ccc(C#N)cn4)CC3)cc2)cc1 [Example 45, (S)-3-(4-(4-((4-(5-cyanopyridine-2-yl)piperazine-1-yl)methyl)benzyloxy)phenyl)hex-4-ynoic acid]
> 0.3		CC#C[C@@H](CC(=O)O)c1ccc(OCc2ccc(CN3CCC(c4ccccc4)C3)cc2)cc1 (stereo partly drawn) [Example 46, (3S)-3-(4-(4-((3-phenylpyrrolidine-1-yl)methyl)benzyloxy)phenyl)hex-4-ynoic acid]
> 0.3		CC#C[C@@H](CC(=O)O)c1ccc(OCc2ccc(CCN3CCc4cc(OC)ccc4C3)cc2)cc1 [Example 48, (S)-3-(4-(4-(2-(6-methoxy-3,4-dihydroisoquinoline-2(1H)-yl)ethyl)benzyloxy)phenyl)hex-4-ynoic acid]
> 0.3		CC#C[C@@H](CC(=O)O)c1ccc(OCc2ccc(CCN3Cc4ccccc4C3)cc2)cc1 [Example 49, (S)-3-(4-(4-(2-(isoindoline-2-yl)ethyl)benzyloxy)phenyl)hex-4-ynoic acid]
> 0.3		CC#C[C@@H](CC(=O)O)c1ccc(OCc2ccc(CCN3CCc4ccccc4C3)cc2)cc1 [Example 50, (S)-3-(4-(4-(2-(3,4-dihydroisoquinoline-2(1H)-yl)ethyl)benzyloxy)phenyl)hex-4-ynoic acid]
